≈ marks a conversion by molar mass, not a printed value.
Experiments:
[1] = system: Pseudomonas aeruginosa SANK 70579; assay: Growth inhibition test of derivatives; type: cell-based
[2] = Solubility (physico-chemical properties)
[3] = system: Pseudomonas aeruginosa SANK 75175; assay: MIC by agar dilution method, Mueller-Hinton agar; type: cell-based
Protocol: (§1) The minimal inhibitory concentrations (MIC) of mureidomycins E and F against various Gram-positive and Gram-negative bacteria were determined by the agar dilution method, using a Mueller-Hinton agar medium (produced by Difco).

[4] = system: Pseudomonas aeruginosa NCTC 10490; assay: MIC by agar dilution method, Mueller-Hinton agar; type: cell-based
Protocol: as §1

[5] = system: Staphylococcus aureus FDA 209P JC-1; assay: MIC by agar dilution method, Mueller-Hinton agar; type: cell-based
Protocol: as §1

[6] = system: Pseudomonas aeruginosa ATCC 13388; assay: MIC by agar dilution method, Mueller-Hinton agar; type: cell-based
Protocol: as §1

[7] = system: Serratia marcescens SANK 73060; assay: MIC by agar dilution method, Mueller-Hinton agar; type: cell-based
Protocol: as §1

[8] = system: Pseudomonas aeruginosa SANK 70970; assay: MIC by agar dilution method, Mueller-Hinton agar; type: cell-based
Protocol: as §1

[9] = system: Pseudomonas aeruginosa NRRL B1000; assay: MIC by agar dilution method, Mueller-Hinton agar; type: cell-based
Protocol: as §1

[10] = system: Proteus mirabilis SANK 70461; assay: MIC by agar dilution method, Mueller-Hinton agar; type: cell-based
Protocol: as §1

[11] = system: Escherichia coli NIHJ JC-2; assay: MIC by agar dilution method, Mueller-Hinton agar; type: cell-based
Protocol: as §1

[12] = system: Pseudomonas aeruginosa SANK 75775; assay: MIC by agar dilution method, Mueller-Hinton agar; type: cell-based
Protocol: as §1

[13] = system: Pseudomonas aeruginosa SANK 70579; assay: MIC by agar dilution method, Mueller-Hinton agar; type: cell-based
Protocol: as §1

[14] = Toxicity in mice after intravenous administration; type: in vivo; settings: intravenously 400 mg/kg

| Compound | inhibition of growth [1] | Solubility in water [2] | Solubility in acetone [2] | Solubility in benzene [2] | Solubility in chloroform [2] | Solubility in ethyl acetate [2] | Solubility in methanol [2] | MIC [3] | MIC [4] | MIC [5] | MIC [6] | MIC [7] | MIC [8] | MIC [9] | MIC [10] | MIC [11] | MIC [12] | MIC [13] | toxicity [14] |
| --- | --- | --- | --- | --- | --- | --- | --- | --- | --- | --- | --- | --- | --- | --- | --- | --- | --- | --- | --- |
| methylmureidomycin E | inhibit the growth | soluble |  |  |  |  |  |  |  |  |  |  |  |  |  |  |  |  |  |
| CSCC[C@H](NC(=O)NC(Cc1cccc(O)c1)C(=O)O)C(=O)N[C@@H](C(=O)NC=C1CC(O)C(n2ccc(=O)[nH]c2=O)O1)C(C)N(C)C(=O)[C@@H](N)Cc1cccc(O)c1 (some centres unmarked) [Mureidomycin A, reference compound] |  | Soluble | slightly soluble | insoluble | insoluble | insoluble | Soluble |  |  |  |  |  |  |  |  |  |  |  |  |
| CSCC[C@@H](NC(=O)N[C@@H](Cc1cccc(O)c1)C(=O)O)C(=O)N[C@@H](C(=O)N/C=C1/C[C@@H](O)[C@H](n2ccc(=O)[nH]c2=O)O1)[C@@H](C)N(C)C(=O)[C@H]1Cc2cc(O)ccc2CN1 [Mureidomycin F] |  | Soluble | slightly soluble | insoluble | insoluble | insoluble | Soluble | 50 µg/mL (≈ 58.6 µM) | 0.8 µg/mL (≈ 0.938 µM) | > 200 µg/mL | 3.13 µg/mL (≈ 3.67 µM) | > 200 µg/mL | 100 µg/mL (≈ 117 µM) | 3.13 µg/mL (≈ 3.67 µM) | > 200 µg/mL | > 200 µg/mL | 25 µg/mL (≈ 29.3 µM) | 1.56 µg/mL (≈ 1.83 µM) | No toxicity was observed |
| phenylmureidomycin E | inhibit the growth | soluble |  |  |  |  |  |  |  |  |  |  |  |  |  |  |  |  |  |
| CSCC[C@@H](NC(=O)N[C@H](Cc1cccc(O)c1)C(=O)O)C(=O)N[C@H](C(=O)N/C=C1/C[C@H](O)[C@@H](n2ccc(=O)[nH]c2=O)O1)[C@H](C)N(C)C(=O)[C@H]1Cc2cccc(O)c2CN1 [Mureidomycin E] |  | Soluble | slightly soluble | insoluble | insoluble | insoluble | Soluble | 25 µg/mL (≈ 29.3 µM) | < 0.4 µg/mL | > 200 µg/mL | 25 µg/mL (≈ 29.3 µM) | > 200 µg/mL | 25 µg/mL (≈ 29.3 µM) | 25 µg/mL (≈ 29.3 µM) | > 200 µg/mL | > 200 µg/mL | 6.25 µg/mL (≈ 7.33 µM) | < 0.4 µg/mL | No toxicity was observed |
| phenylmureidomycin F | inhibit the growth | soluble |  |  |  |  |  |  |  |  |  |  |  |  |  |  |  |  |  |
| methylmureidomycin F | inhibit the growth | soluble |  |  |  |  |  |  |  |  |  |  |  |  |  |  |  |  |  |

Reference: patent publication US5041423A, “Antibiotics of the mureidomycin group, their preparation, and their therapeutic use” (Sankyo Company, Limited, priority 1987, dated 1991)
